Test results as given in patent publication US20250126968A1, “Light-Emitting Device” (Semiconductor Energy Laboratory Co., Ltd., priority 2023, published 2025).

Test: Solubility test of PrdP2Phen by LC-MS analysis
Format: physicochemical
Settings: 1 mg in 1 mL of water, ultrasonic waves 5 minutes, membrane-filtered, filtrate analysed by LC-MS; one atmosphere, room temperature
Method: Next, a solubility test of PrdP2Phen was performed. Note that the solubility test was conducted at a pressure of one atmosphere at room temperature (RT).
In the LC-MS analysis, liquid chromatography (LC) separation was carried out with ACQUITY UPLC (Waters Corporation), and MS analysis (mass spectrometry) was carried out with Xevo G2 Tof MS (Waters Corporation). Acquity UPLC BEH C8 (2.1×100 mm, 1.7 μm) was used as a column for the LC separation. Acetonitrile was used for Mobile Phase A and a 0.1% aqueous solution of formic acid was used for Mobile Phase B. The injection amount of the sample was 5.0 μL. Note that in the analysis, the wavelength of a photodiode array detector was set to 263 nm±1 nm.
In a 5-mL sample bottle, 1 mg of PrdP2Phen was put and 1 mL of water was added thereto. This mixture was irradiated with ultrasonic waves for 5 minutes. This mixture was filtered through a membrane filter to remove the solid, and the resulting filtrate was diluted by five times with acetonitrile. The obtained solution was subjected to LC-MS analysis.

c1cc(-c2ccc(N3CCCC3)cc2)c2ccc3c(-c4ccc(N5CCCC5)cc4)ccnc3c2n1 [PrdP2Phen, 4,7-bis[4-(1-pyrrolidinyl)phenyl]-1,10-phenanthroline]
solubility in water: extremely low solubility in water
